{"source": "patent US6828458B2", "about": "“Topical antiandrogen for hair loss and other hyperandrogenic conditions” (Biophysica, Inc., priority 2000, dated 2004)", "key": {"mice [1]": {"system": "mice", "assay": "Systemic toxicity by intraperitoneal injections in mice", "format": "in vivo, mouse", "experimental": "(§1) The systemic toxicity of BP-766 was orientationally evaluated by multiple intraperitoneal (i.p.) injections in mice. […] […] The murine maximum tolerated dose (MTD) was approximately 300 mg/kg."}, "Androgen Receptor": {"target": "T1, Androgen Receptor (Homo sapiens, UniProt P10275, T878A)", "T1 construct": "endogenous in cells; host or cells: LNCaP cells", "T1 sequence (P10275 1-920 T878A)": "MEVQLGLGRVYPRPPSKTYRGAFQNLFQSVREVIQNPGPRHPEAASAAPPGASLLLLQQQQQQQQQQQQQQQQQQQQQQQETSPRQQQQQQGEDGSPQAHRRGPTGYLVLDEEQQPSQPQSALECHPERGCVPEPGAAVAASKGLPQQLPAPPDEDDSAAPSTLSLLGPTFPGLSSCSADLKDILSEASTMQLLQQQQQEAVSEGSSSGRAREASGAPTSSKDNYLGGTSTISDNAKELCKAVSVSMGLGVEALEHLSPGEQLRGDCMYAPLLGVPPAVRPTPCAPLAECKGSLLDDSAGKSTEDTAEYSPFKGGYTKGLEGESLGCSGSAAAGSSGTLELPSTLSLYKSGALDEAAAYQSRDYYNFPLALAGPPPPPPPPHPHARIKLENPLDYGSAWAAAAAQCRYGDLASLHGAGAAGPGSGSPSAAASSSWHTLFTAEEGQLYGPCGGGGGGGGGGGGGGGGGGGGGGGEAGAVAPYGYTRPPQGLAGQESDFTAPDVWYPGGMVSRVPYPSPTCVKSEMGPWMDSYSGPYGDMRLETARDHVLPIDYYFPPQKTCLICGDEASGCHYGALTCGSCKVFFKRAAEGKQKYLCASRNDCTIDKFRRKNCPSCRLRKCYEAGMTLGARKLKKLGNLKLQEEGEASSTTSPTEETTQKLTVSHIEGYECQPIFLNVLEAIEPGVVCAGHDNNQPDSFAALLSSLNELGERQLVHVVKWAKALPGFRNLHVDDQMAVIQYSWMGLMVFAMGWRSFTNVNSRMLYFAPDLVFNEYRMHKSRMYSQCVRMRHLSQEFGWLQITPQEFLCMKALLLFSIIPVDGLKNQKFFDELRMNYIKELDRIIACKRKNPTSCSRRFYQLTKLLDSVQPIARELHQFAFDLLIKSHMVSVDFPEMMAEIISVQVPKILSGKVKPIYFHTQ", "assay": "Androgen receptor remaining in LNCaP cells after incubation, Western Blot of lysate", "format": "cell-based", "conditions": "for Percent Androgen Receptor Remaining in LNCaP Cells: 48 hrs. incubation", "experimental": "The interaction of BP-766 with androgenic receptors was studied by incubation with LNCaP cells, (known to contain human AR), subsequent cell lysis and the Western Blot assay to identify and quantify the androgenic receptors protein."}, "[2]": {"assay": "Cutaneous absorption in rabbits, serum analyzed by HPLC", "format": "in vivo, rabbit", "conditions": "BP-766 topical twice daily (0.6 mg/kg-day) for ten days, limit of detection approximately 10 ng/ml", "experimental": "(§2) BP-766 was applied topically twice daily to simulate the intended human application (0.6 mg/kg-day), on the two 10 cm^2 separate areas of a closely shaved skin of four rabbits, for ten days. One ml blood samples were collected at 2, 5 and 21 hours after the first application, and once every other day thereafter. Serum was analyzed by HPLC. Using spiked and blank serum samples and a linearity determination, the limits of detection of BP-766 and/or BP-34 were established as approximately 10 ng/ml. […] The cutaneous absorption in rabbits is known to be about 5 to 6 times greater than in humans (Marzulic, F. N. and Maibach, H.: Dermatotoxicology, 5th Edition, Taylor & Frasier, Washington, D.C. 1966) so that even with the detection limits of this method, only trace amounts could ever be expected in humans."}, "[3]": {"assay": "Systemic toxicity by intraperitoneal injections in mice", "format": "in vivo, mouse", "conditions": "mouse, in vivo, ip, i.p. injections, read-out: murine maximum tolerated dose (MTD)", "experimental": "as §1"}, "Wistar rats": {"system": "Wistar rats", "assay": "Acute oral toxicity in Wistar rats", "format": "in vivo, rat", "conditions": "male and female", "experimental": "(§3) Acute oral toxicity of BP-766 was determined in NMRI mice and Wistar rats."}, "[4]": {"system": "volunteers with incipient androgenic effluvium and/or alopecia", "assay": "Topical treatment of volunteers with androgenic effluvium and/or alopecia", "format": "in vivo, human"}, "[5]": {"assay": "Accelerated shelf stability of formulated solutions, HPLC", "format": "physicochemical", "conditions": "for BP-766 remaining: anhydrous isopropanol", "from_the_text": "(Table 3). […] (Connors, Kenneth A; Amidon, Gordon L.; Stella, Valentino J. Chemical Stability of Pharmaceuticals—A Handbook for Pharmacists. Second Edition, 1986, John Wiley & Sons)"}, "[6]": {"assay": "Acute oral toxicity in NMRI mice", "conditions": "mouse, in vivo, probit analysis", "experimental": "as §3"}, "rabbits [7]": {"system": "rabbits", "assay": "Cutaneous irritation observed daily in rabbits during ten-day topical application", "format": "in vivo, rabbit", "conditions": "topical twice daily for ten days", "experimental": "as §2"}, "rabbits [8]": {"system": "rabbits", "assay": "Skin irritation potential according to ISO 10 993-10", "format": "in vivo, rabbit", "experimental": "BP-766 was also evaluated by an independent laboratory according to ISO 10 993-10, in rabbits. A single application of 0.5 ml as a 1% (m/v) solution in anhydrous isopropyl alcohol and/or the vehicle only was employed. The application site was covered in one group, and not covered in an other group, each consisting of six rabbits. […] Non-irritability was defined by an arbitrary index, ranging from 0 to 0.4."}, "[9]": {"assay": "Biodegradation in human serum, HPLC", "format": "in vitro ADME", "conditions": "38° C., 0.5 mg/ml", "experimental": "BP-766 was tested for degradation by incubation with human serum at 38° C., at a concentration of 0.5 mg/ml. It would be desirable for safety that should BP-766 for any unexpected reason be resorbed from the skin, it should decompose into rapidly excretable non-toxic components. The only products of biodegradation of BP-766 are the precursor BP-34, and trifluoroacetic acid, which both have good biological tolerance. […] (Permadi, H; Lundgren, B; Andersson K; Sundberg C; DePierre J W. Effects of perfluoro fatty acids on peroxisome proliferation and mitochondrialsize in mouse liver: dose and time factors and effect of chain length. Xenobiotica, (1993) Vol 23, No. 7, pp. 761-70). Orientational toxicity of BP-34 is described further below."}, "mice [10]": {"system": "mice", "conditions": "cited from earlier work"}}, "note": "Where two headings read alike, the source gives them in different places.", "data": [{"compound": "4-nitro-3-trifluoromethyl-N-(2-hydroxy-2-methyl-3-amino [BP-34]", "values": [{"measurement": "murine maximum tolerated dose (MTD)", "setting": "mice [1]; i.p. injections", "value": "approximately 250 mg/kg"}, {"measurement": "mortality", "setting": "mice [1]; i.p. injections of 100-300 mg/kg", "value": "no mortalities"}, {"measurement": "morbidity / mortality", "setting": "mice [1]; i.p., 300 mg/kg", "value": "Morbidity, but not mortality, was observed"}, {"measurement": "effect on the androgenic receptors (in words)", "setting": "Androgen Receptor", "value": "had no effect on the androgenic receptors"}, {"measurement": "Percent Androgen Receptor Remaining in LNCaP Cells", "setting": "Androgen Receptor; 3 μ Molar conc.", "value": 97, "unit": "%"}, {"measurement": "Percent Androgen Receptor Remaining in LNCaP Cells", "setting": "Androgen Receptor; 10 μ Molar conc.", "value": 98, "unit": "%"}, {"measurement": "BP-766 and/or BP-34 found in serum", "setting": "[2]", "value": "No BP-766 or BP-34 was found in any of the samples"}]}, {"compound": "CC(O)(CNC(=O)C(F)(F)F)C(=O)Nc1ccc([N+](=O)[O-])c(C(F)(F)F)c1", "note": "(centres unmarked) [BP-766, 2-hydroxy-2-methyl-N-(4-nitro-3-(trifluoromethyl)phenyl)-3-(2,2,2-trifluoroacetylamino)propanamide]", "values": [{"measurement": "MTD at 7 days", "setting": "[3]", "value": "~300", "unit": "mg/kg"}, {"measurement": "LD50 (daily dose for seven days that resulted in 50% mortality)", "setting": "mice [1]; i.p., daily for seven days", "value": 450, "unit": "mg/kg bw"}, {"measurement": "LD50", "setting": "Wistar rats", "value": "greater than 2500 mg/kg body weight"}, {"measurement": "dermal irritation", "setting": "[4]; six volunteers, 2% solution in anhydrous isopropanol, 1 ml twice daily on the scalp, 8 weeks", "value": "no dermal irritation"}, {"measurement": "effluvium of the frontal hairline", "setting": "[4]; six volunteers, 2% solution, 1 ml twice daily, after 2 weeks", "value": "arrested the effluvium of the frontal hairline in all six volunteers"}, {"measurement": "hair regrowth", "setting": "[4]; two volunteers, after 4 months use", "value": "an evident regrowth was observed"}, {"measurement": "% BP-766", "setting": "[5]; 60/40 EtOH/H2O, 55° C., 0 hours", "value": 100, "unit": "%"}, {"measurement": "% BP-766", "setting": "[5]; 60/40 EtOH/H2O, 55° C., 24 hours", "value": 99.1, "unit": "%"}, {"measurement": "% BP-766", "setting": "[5]; 60/40 EtOH/H2O, 55° C., 48 hours", "value": 98.2, "unit": "%"}, {"measurement": "% BP-766", "setting": "[5]; 60/40 EtOH/H2O, RT, 0 hours", "value": 100, "unit": "%"}, {"measurement": "% BP-766", "setting": "[5]; 60/40 EtOH/H2O, RT, 24 hours", "value": 99.9, "unit": "%"}, {"measurement": "% BP-766", "setting": "[5]; 60/40 EtOH/H2O, RT, 48 hours", "value": 99.69, "unit": "%"}, {"measurement": "% BP-766", "setting": "[5]; Isopropanol (3-5% water), 55° C., 0 hours", "value": 100, "unit": "%"}, {"measurement": "% BP-766", "setting": "[5]; Isopropanol (3-5% water), 55° C., 6 hours", "value": 99.6, "unit": "%"}, {"measurement": "% BP-766", "setting": "[5]; Isopropanol (3-5% water), 55° C., 24 hours", "value": 99.1, "unit": "%"}, {"measurement": "% BP-766", "setting": "[5]; Isopropanol (3-5% water), 55° C., 144 hours", "value": 98.7, "unit": "%"}, {"measurement": "BP-766 remaining", "setting": "[5]; 0 weeks", "value": 100, "unit": "%"}, {"measurement": "BP-766 remaining", "setting": "[5]; 1 week", "value": 99.6, "unit": "%"}, {"measurement": "BP-766 remaining", "setting": "[5]; 2 weeks", "value": 99.4, "unit": "%"}, {"measurement": "BP-766 remaining", "setting": "[5]; 3 weeks", "value": 99.3, "unit": "%"}, {"measurement": "BP-766 remaining", "setting": "[5]; 4 weeks", "value": 99.2, "unit": "%"}, {"measurement": "BP-766 remaining", "setting": "[5]; 5 weeks", "value": 98.9, "unit": "%"}, {"measurement": "BP-766 remaining", "setting": "[5]; 6 weeks", "value": 98.8, "unit": "%"}, {"measurement": "BP-766 remaining", "setting": "[5]; 7 weeks", "value": 98.3, "unit": "%"}, {"measurement": "BP-766 remaining", "setting": "[5]; 8 weeks", "value": 98.4, "unit": "%"}, {"measurement": "LD50", "setting": "[6]; female NMRI mice", "value": 2230, "unit": "mg/kg"}, {"measurement": "LD50", "setting": "[6]; male NMRI mice", "value": 2870, "unit": "mg/kg"}, {"measurement": "signs of cutaneous irritation", "setting": "rabbits [7]", "value": "none was detected"}, {"measurement": "skin irritation potential", "setting": "rabbits [8]", "value": "no skin irritation potential was found"}, {"measurement": "% BP-766 remaining in human serum", "setting": "[9]; 0 hours", "value": 100, "unit": "%"}, {"measurement": "% BP-766 remaining in human serum", "setting": "[9]; 6 hours", "value": 54.3, "unit": "%"}, {"measurement": "% BP-766 remaining in human serum", "setting": "[9]; 24 hours", "value": 10.9, "unit": "%"}, {"measurement": "% BP-766 remaining in human serum", "setting": "[9]; 48 hours", "value": "Traces"}]}, {"compound": "CC(C)(O)C(=O)Nc1ccc([N+](=O)[O-])c(C(F)(F)F)c1", "note": "[Hydroxyflutamide, reference compound]", "values": [{"measurement": "Percent Androgen Receptor Remaining in LNCaP Cells", "setting": "Androgen Receptor; 3 μ Molar conc.", "value": 98, "unit": "%"}, {"measurement": "Percent Androgen Receptor Remaining in LNCaP Cells", "setting": "Androgen Receptor; 10 μ Molar conc.", "value": 94, "unit": "%"}, {"measurement": "effect on the androgenic receptors (in words)", "setting": "Androgen Receptor; any concentration, after 48 hrs.", "value": "did not a affect the androgenic receptors significantly"}]}, {"compound": "O=C(O)C(F)(F)F", "note": "[trifluoroacetic acid]", "values": [{"measurement": "toxicity when fed to mice", "setting": "mice [10]", "value": "showed no toxicity"}]}]}
